Measured values: patent publication US20090136470A1, “REGULATORY T CELLS AND METHODS OF MAKING AND USING SAME” (priority 2007, published 2009)
Read-outs that look alike come from different tables or passages of the source.

Key:
[1] = test system: CD4^+CD25^− spleen T cells; test: Th-17 differentiation of CD4 T cells stimulated with dendritic cells or spleen APCs plus TGF-β and IL-6 (intracellular IL-17 staining, IL-17 ELISA); format: cell-based, mouse
Procedure: (§1) For CD4^+CD25^− T cell isolation, spleens were removed, teased into cell-single suspensions and filtered through a 70 μm cell strainer (Fisher Scientific, USA). CD4^+CD25^−T cells were isolated by negative selection after incubation with a mix of specific biotin-conjugated mAbs (anti-CD8, CD11b, CD11ε, CD25, CD45R (B220), NK1.1, and TER119) at 1/200 dilution, and anti-biotin magnetic microbeads (25-40 μl per spleen) (Miltenyi Biotec, USA).
(§2) For dendritic cells isolation, spleen and MLN were chopped and digested by collagenase type D (Roche, USA) for 30 min at room temperature. Digested tissues were treated with 5 mM of EDTA for additional 5 min and mashed through a 70 μm cell strainer. Subsequently, CD11c^+ cells were enriched by positive selection using anti-CD11c microbeads according to the manufacturer's protocol (Miltenyi Biotec, USA). Enriched populations were stained with CD45-APC, CD 11c-PE, I-A^b-FITC and TCR β and sorted for TCRβ^−CD45^+CD11c^+I-Ab^+ by flow cytometry using a FACS-DIVA cell sorter (USA).
(§3) The culture medium used for dendritic cell-T cell cultures was Iscove's modified Dulbecco medium (IMDM) (Gibco, USA) supplemented with 10% heat-inactivated FCS, 2 mM L-glutamine, 100 U/ml penicillin, 100 μg/ml streptomycin, and 5 mM β-mercaptoethanol (all Sigma, USA). […] For dendritic cell-T cell cultures, 2×10^4 dendritic cells and 1×10^5 T cells were cultured in a volume of 200 μl (96-well plates). For irradiated APC-T cell cultures, 5×10^5 APCs and 1×10^5 T cells were cultured in a volume of 200 μl in 96-well plates (2×10^6 APCs and 0.5×10^6 T cells per well in 48-well plates). […] For the study shown in FIG. 4A, after sorting of naive CD4^+ cells (CD25^−CD44^lowCD62L^+), cells were washed twice in PBS+0.1% BSA, counted and labeled with 2 μM of CFSE (Carboxyfluorescein diacetate, succinimidyl ester) (Molecular Probes, USA) at a concentration of 5−10×10^6 cells per ml in PBS-0.1% BSA.
To block non-specific staining, the 2.4G2 anti-CD16/32 antibody was added.

CD4^+CD25^−T cells [2] = test: TGF-β-dependent Foxp3 induction (Treg differentiation) in CD4 T cells with dendritic cells or APCs; format: cell-based, mouse; settings: OT-II CD4 cells, OVAp, TGF-β1; LE135 1 μM, RA 100 nM
Procedure: as §1, §2, §3
For Foxp3 staining, no stimulation with PMA/Ionomycin was performed, with the exceptions of FIGS. 8B and 9A. […]

[3] = test system: CD4 cells cultured with MLN DCs (MDC) or splenic DCs (SDC); test: Retinal (RAL): TGF-β mediated Foxp3 induction (Treg differentiation) in DC/T cell co-cultures; format: cell-based
[4] = test system: CD4^+T cells from small intestine lamina propria and spleen; test: Oral Listeria monocytogenes infection (and naïve mice) treated with RA or LE540: IL-17^+ and Foxp3^+ CD4 T cells; format: in vivo, mouse
Text: Listeria monocytogenes (strain WT LMOVA) was used. Mice were orally infected (gavage) with 5×10^8 CFU of L. monocytogenes. Mice received i.p. injections of vehicle, RA or LE540 on the same day and 2 days after infection. Mice were sacrificed 5 days post-infection for analysis.
Every second day, in a interval of two weeks, naïve mice received gavage of either vehicle, RA or LE540.
Liver lymphocytes were isolated using 37.5% isotonic Percoll (GE Healthcare, USA), as previously described [Y. Kinjo et al, Nat Immunol 7, 978 (2006)]. Intestinal lymphocytes were isolated and prepared as previously described [Aranda et al., J Immunol 158, 3464 (1997)]. Briefly, small and large intestines were removed and placed in chilled HBSS media containing 5% FCS. The intestines were carefully cleaned from the mesentery and flushed of fecal content. Intestines were opened longitudinally and then cut into 1 cm pieces. The intestinal tissue was transferred to a 250-ml Erlenmeyer flasks containing 25 ml of preheated HBSS complemented with 2% FCS and 1 mM DTT (Sigma, USA) and shaken at 200 rpm for 40 min at 37° C. The tissue suspension was passed through a stainless steel sieve into 50-ml conical tubes and the cells were pelleted by centrifugation at 1200 rpm for 10 min at 4° C. The cell pellet was resuspended in complete HBSS, layered over a discontinuous 40/70% Percoll gradient, and centrifuged at 2000 rpm for 30 min. Cells from the 40/70% interface were collected, washed and resuspended in complete RPMI media. These purified cells constituted the intraepithelial lymphocyte (IEL) population. To isolate the lamina propria lymphocytes (LPL), the remaining intestinal tissue in the stainless steel sieve was minced and transferred to conical tubes. The minced pieces were resuspended in 20 ml of complete RPMI containing 1 mg/ml of collagenase (Sigma, USA) and shaken at 200 rpm for 40 min at 37° C. The tissue suspension was collected and passed through a 70 μm cell strainer and the cells were pelleted by centrifugation at 1200 rpm. The cells were then resuspended and layered onto a 40/70% Percoll gradient, centrifugated and processed as described above for the IEL preparation.
(§4) To block non-specific staining, the 2.4G2 anti-CD16/32 antibody was added. […] For intracellular cytokine staining, cells obtained from in vitro cultures or isolated IELs were incubated for 4-5 hours with 50 ng/ml PMA, 750 ng/ml Ionomycin (both Sigma, USA) and 10 μg/ml Brefeldin A (Invitrogen, USA) in a tissue culture incubator at 37° C.
For Foxp3 staining, no stimulation with PMA/Ionomycin was performed, with the exceptions of FIGS. 8B and 9A. In these cases, the time of incubation with PMA/Ion was reduced to 3.5 hours. Intracellular Foxp3 staining was performed as per the eBioscience's Foxp3-staining kit protocol.

PPAR-γ = target: T1, PPAR-γ (Homo sapiens, UniProt P37231); settings: cited from earlier work
T1 sequence (P37231 1-505): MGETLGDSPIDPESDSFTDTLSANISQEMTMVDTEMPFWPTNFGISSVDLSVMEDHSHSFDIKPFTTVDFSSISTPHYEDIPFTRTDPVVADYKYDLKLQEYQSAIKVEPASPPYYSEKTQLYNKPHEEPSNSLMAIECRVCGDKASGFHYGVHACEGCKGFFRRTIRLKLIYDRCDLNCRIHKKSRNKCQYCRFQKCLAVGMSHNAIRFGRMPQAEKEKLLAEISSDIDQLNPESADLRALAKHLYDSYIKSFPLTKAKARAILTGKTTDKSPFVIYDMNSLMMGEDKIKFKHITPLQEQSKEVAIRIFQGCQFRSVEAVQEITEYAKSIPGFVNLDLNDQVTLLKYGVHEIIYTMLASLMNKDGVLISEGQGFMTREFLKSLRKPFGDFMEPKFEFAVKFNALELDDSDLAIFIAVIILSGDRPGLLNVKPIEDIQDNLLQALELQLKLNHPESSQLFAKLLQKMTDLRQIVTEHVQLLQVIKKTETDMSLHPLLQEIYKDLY

[5] = test system: CD4 cells cultured with either MLN DCs (MDC) or splenic DCs (SDC); test: Retinal (RAL): TH-17 differentiation and IL-17 production in DC/T cell co-cultures; format: cell-based
RXR = settings: cited from earlier work
[6] = test system: retinoic-acid orphan receptor RORg-t; test: Retinal (RAL): RORg-t in APC-free system; format: cell-based
RAR = settings: cited from earlier work
CD4^+CD25^−T cells [7] = test: CTLA-4, CD103, CCR9 and CD25 staining of CD4 T cells stimulated with spleen APCs plus TGF-β1 and/or RA; format: cell-based, mouse; settings: TGF-β1 added to RA
Procedure: as §1
APCs were isolated from spleen of C57BL/6 mice by negative selection using CD90.2 (Thy1.2) magnetic microbeads to deplete T cells (Miltenyi Biotec).
as §3, §4

Question: For `CC1=C(/C=C/C(C)=C\C=C\C(C)=C\C(=O)O)C(C)(C)CCC1` [9-cis RA, 9-cis retinoic acid], which “Th-17 differentiation by spleen dendritic cells” value ([1]; added to cultures with TGF-β and IL-6, 100 nM) is on record?
Answer: also inhibited the Th-17 differentiation by spleen dendritic cells

Question: Which results are given for `CN1c2cc3c(cc2N=C(c2ccc(C(=O)O)cc2)c2ccccc21)C(C)(C)CCC3(C)C` [LE135]?
Answer: relative inefficiency of MLN dendritic cells to mediate Th-17 differentiation ([1]; RAR antagonist included during activation under Th-17 conditions, 1 μM): reversed; TGF-β-dependent Foxp3 induction by MLN dendritic cells (CD4^+CD25^−T cells [2]): reduced; effect of RAR antagonist on RAL-increased Foxp3 induction ([3]; LE135 added with RAL): reversed Foxp3 induction

Question: For `CN1c2cc3c(cc2N=C(c2ccc(C(=O)O)cc2)c2ccc4ccccc4c21)C(C)(C)CCC3(C)C` [LE540], which “Th-17 mucosal T cells (IL-17 staining of CD4^+T cells, small intestine lamina propria)” value ([4]; 5 days after oral L. monocytogenes infection, i.p. days 0 and 2, RA 300 μg/mouse, LE540 100 μg/mouse) is on record?
Answer: no apparent difference compared to the controls

Question: And the “differentiation / number of mucosal Foxp3^+Treg cells (small intestine lamina propria)” value ([4]; Lm challenged mice, 5 days after oral infection)?
Answer: significantly reduce

Question: What about the “spleen Foxp3^+CD4 cells” value ([4]; Lm infected mice (2 i.p. injections) and naïve mice (2-week gavage)) of the same molecule?
Answer: No effect

Question: With `CC1=C(/C=C/C(C)=C/C=C/C(C)=C/C=O)C(C)(C)CCC1` [RAL, retinal] as the molecule, how does the “binding to PPAR-γ” value (PPAR-γ) read?
Answer: shown to bind

Question: And the TH-17 differentiation [5]?
Answer: able to inhibit TH-17 differentiation

Question: What about the “IL-17 production from CD4 cells” value ([5]; cultured with either MLN DCs (MDC) or splenic DCs (SDC)) of the same molecule?
Answer: suppresses IL-17 production

Question: What about the TH-17 differentiation ([5]; listed as retinal) of the same molecule?
Answer: suppressor of TH-17 differentiation

Question: And the “binding to RXR” value (RXR)?
Answer: shown to bind

Question: What about the RORg-t [6] of the same molecule?
Answer: inhibited

Question: What about the “binding to RAR” value (RAR) of the same molecule?
Answer: does not bind

Question: What about the “TGF-β mediated Foxp3 induction / Treg differentiation” value [3] of the same molecule?
Answer: enhance TGF-β mediated Foxp3 induction

Question: And the “increased induction of Foxp3, MDC versus SDC cultures” value ([3]; DC/T cell co-cultures)?
Answer: observed mainly in MDC cultures

Question: And the “TGF-β mediated Foxp3 induction / Treg differentiation” value ([3]; listed as retinal)?
Answer: enhances Treg differentiation

Question: With `CC(C)=CCCC(C)=CC=O` [citral] as the molecule, how does the “effect of RALDH inhibition on RAL effects on TH-17 differentiation” value ([5]; citral added with RAL) read?
Answer: does not reverse RAL effects

Question: With “TGF-β: cytokine, transforming growth factor-beta, exogenous, 5 ng/ml (R&D Systems)” as the molecule, how does the “RA-induced CCR9 expression” value (CD4^+CD25^−T cells [7]) read?
Answer: partially antagonized
